In brackets after ≈: the same amount, converted by molar mass.
Legend:
C. krusei = assay: Antifungal Activity Assay (broth microtiter MIC), C. krusei; format: cell-based, Candida krusei; conditions: Pichia kudriavzevii, ATCC6258, 48 h, Table 3b (additional results); ATCC 6258; 3 replicates; MIC recorded at 48 h; read-out: MIC, C. krusei ATCC 6258
Outline: (§1)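 Susceptibility was determined by CLSI M27-A3 broth microdilution in RPMI 1640 buffered with MOPS. Growth inhibition was scored visually after 48 h.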

[1] = tested on: Collectotrichum graminicola (Cg); assay: Growth inhibition assay of fungal pathogens, Cg; format: cell-based; conditions: 48 h, Collectotrichum graminicola; growth inhibition at 48 hours vs 2% DMSO control; read-out: Concentration at 90% Inhibition Cg
Outline: (§2)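 Pathogen growth in 17% V8 broth is measured by OD600 at 24 and 48 hours, after blank subtraction, in the presence of compound at 50, 10 and 2 ppm or 2, 0.4 and 0.08 ppm. Inhibition in percent comes from 48-hour readings against the DMSO control.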

human (hACC2) = human (hACC2) (Homo sapiens, UniProt O00763); assay: In vitro ACC inhibition assay (ADP-Glo), hACC2; format: biochemical; conditions: Table 2b, additional results, 5 nM ACC2, 20 μM ATP, 20 μM acetyl-CoA
Chain of human (hACC2) (O00763 whole entry): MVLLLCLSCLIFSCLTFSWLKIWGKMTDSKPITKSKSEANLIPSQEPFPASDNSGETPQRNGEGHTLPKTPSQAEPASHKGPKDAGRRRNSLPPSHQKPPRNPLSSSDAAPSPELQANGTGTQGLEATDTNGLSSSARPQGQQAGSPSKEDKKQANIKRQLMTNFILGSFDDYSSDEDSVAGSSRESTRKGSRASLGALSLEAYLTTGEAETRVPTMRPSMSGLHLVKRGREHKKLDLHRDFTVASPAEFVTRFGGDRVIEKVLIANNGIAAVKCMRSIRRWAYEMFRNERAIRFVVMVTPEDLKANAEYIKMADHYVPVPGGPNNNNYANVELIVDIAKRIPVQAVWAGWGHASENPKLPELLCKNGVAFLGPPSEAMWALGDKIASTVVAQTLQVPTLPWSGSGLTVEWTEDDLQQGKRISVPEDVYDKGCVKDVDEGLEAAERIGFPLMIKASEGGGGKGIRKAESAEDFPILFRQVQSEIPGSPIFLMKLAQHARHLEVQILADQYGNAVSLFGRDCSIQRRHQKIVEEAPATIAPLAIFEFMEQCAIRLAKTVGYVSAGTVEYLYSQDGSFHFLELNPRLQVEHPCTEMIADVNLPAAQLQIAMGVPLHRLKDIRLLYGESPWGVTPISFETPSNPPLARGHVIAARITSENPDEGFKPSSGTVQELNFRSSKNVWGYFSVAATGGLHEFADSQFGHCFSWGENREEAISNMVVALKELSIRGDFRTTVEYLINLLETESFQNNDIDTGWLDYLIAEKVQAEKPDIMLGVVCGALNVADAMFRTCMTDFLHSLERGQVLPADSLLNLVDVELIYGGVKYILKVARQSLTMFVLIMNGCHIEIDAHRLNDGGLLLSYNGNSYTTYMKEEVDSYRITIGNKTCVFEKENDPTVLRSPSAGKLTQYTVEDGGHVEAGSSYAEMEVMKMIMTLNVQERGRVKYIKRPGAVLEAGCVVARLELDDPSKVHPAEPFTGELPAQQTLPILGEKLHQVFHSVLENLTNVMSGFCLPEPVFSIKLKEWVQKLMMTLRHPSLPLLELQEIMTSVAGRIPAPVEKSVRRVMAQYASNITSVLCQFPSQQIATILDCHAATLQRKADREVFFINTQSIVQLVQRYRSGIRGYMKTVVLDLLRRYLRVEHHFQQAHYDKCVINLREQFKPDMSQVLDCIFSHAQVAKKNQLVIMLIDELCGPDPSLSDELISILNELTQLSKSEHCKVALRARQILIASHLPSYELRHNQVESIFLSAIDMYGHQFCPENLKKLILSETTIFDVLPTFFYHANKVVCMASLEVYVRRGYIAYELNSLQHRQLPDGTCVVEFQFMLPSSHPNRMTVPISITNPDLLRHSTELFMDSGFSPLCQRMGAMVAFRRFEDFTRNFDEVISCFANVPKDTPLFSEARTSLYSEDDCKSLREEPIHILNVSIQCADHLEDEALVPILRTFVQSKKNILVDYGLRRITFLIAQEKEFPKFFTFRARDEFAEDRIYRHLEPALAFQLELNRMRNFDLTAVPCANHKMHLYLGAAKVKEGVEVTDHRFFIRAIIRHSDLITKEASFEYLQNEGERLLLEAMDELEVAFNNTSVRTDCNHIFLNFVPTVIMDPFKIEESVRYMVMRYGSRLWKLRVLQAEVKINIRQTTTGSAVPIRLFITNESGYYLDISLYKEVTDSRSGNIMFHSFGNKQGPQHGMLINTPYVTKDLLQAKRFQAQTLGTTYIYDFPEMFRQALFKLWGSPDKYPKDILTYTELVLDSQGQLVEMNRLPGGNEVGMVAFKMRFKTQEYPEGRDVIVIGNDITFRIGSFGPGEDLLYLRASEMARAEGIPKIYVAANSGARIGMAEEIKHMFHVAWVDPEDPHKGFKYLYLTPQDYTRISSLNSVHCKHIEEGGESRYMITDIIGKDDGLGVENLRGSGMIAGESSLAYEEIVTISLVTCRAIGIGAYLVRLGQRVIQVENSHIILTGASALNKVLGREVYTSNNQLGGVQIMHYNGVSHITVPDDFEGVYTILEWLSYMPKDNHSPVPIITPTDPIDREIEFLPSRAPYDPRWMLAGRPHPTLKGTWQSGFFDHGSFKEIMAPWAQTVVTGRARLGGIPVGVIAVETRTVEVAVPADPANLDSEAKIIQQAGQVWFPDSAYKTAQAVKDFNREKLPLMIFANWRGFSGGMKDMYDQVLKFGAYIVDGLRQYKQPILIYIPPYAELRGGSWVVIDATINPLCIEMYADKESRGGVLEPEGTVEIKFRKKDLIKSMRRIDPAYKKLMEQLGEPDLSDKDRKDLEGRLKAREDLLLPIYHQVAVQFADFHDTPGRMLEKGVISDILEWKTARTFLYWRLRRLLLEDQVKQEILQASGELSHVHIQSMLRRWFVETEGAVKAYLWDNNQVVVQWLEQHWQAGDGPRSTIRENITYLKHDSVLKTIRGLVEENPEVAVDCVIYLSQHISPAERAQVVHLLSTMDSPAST
Method: The detailed procedure is as follows. […] 10 μL ADP glo reagent was added. […] 20 μL kinase detection reagent was added.

fungal (fACC2) = fungal (fACC2) (UniProt Q00955); conditions: read-out: fACC2 (in vitro ACC2 Inhibition Assay, IC50); Table 2b, additional results; ADP-Glo, 5 nM ACC2, 20 μM ATP, 20 μM acetyl-CoA
Chain of fungal (fACC2) (Q00955 whole entry): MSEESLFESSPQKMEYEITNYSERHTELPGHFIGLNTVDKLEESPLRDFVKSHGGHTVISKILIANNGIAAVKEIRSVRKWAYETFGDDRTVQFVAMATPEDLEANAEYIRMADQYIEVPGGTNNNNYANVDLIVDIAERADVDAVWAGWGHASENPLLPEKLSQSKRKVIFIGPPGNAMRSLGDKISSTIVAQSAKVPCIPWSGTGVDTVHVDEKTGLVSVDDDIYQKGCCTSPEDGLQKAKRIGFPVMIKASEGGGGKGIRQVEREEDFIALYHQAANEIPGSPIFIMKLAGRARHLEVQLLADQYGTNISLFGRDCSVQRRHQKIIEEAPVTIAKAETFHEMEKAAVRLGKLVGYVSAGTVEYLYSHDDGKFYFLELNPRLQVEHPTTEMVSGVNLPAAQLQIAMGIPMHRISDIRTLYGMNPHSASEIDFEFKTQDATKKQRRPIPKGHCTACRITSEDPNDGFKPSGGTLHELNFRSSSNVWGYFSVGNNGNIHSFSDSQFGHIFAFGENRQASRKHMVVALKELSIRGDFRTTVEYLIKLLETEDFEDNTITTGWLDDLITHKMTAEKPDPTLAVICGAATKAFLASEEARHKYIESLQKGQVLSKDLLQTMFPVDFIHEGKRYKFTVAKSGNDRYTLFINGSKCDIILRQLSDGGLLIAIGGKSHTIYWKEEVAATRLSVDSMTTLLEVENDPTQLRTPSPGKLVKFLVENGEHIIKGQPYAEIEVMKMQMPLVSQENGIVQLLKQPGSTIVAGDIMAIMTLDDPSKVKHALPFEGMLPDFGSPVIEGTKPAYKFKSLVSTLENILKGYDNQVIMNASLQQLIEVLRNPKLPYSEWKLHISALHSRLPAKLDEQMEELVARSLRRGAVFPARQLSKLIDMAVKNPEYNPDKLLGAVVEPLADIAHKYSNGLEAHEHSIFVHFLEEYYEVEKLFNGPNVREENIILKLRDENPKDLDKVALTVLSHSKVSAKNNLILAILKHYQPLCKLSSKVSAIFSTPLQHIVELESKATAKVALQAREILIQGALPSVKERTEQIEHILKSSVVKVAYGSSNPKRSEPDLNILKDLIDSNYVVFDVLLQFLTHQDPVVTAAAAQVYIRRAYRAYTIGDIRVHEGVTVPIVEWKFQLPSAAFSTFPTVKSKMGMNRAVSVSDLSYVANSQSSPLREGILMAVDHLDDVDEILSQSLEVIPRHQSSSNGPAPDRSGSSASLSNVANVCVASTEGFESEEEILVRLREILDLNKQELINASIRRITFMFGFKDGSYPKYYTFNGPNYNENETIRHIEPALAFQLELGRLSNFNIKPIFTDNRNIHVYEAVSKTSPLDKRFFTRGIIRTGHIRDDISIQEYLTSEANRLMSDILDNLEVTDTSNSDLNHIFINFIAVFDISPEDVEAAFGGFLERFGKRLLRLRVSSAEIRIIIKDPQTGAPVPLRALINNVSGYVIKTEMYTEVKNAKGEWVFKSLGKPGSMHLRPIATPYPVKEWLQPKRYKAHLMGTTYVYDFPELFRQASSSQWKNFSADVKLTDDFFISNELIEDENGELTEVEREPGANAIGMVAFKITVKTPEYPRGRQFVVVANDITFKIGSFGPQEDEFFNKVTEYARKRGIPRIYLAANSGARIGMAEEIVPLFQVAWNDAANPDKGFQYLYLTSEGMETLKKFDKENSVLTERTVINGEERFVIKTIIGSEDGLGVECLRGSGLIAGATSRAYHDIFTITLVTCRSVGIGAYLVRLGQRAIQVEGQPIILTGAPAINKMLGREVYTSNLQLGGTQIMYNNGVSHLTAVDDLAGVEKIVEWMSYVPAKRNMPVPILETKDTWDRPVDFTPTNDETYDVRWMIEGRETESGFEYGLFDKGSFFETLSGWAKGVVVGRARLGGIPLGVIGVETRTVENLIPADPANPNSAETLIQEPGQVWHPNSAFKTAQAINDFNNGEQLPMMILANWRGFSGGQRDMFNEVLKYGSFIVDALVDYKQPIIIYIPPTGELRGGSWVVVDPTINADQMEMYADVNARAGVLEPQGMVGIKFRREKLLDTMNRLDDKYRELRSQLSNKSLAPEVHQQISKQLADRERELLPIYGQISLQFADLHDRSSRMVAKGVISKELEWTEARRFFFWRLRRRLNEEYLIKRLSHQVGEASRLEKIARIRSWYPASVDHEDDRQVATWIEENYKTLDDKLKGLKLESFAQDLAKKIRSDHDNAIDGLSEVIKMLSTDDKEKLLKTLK

Diplodia maydis (Dm) = assay: Growth inhibition assay of fungal pathogens, Dm; format: cell-based; conditions: Stenocarpella maydis, 48 h, Diplodia maydis; growth inhibition at 48 hours vs 2% DMSO control; read-out: Concentration at 90% Inhibition Dm
Outline: as §2

Septoria tritici (St) = assay: Growth inhibition assay of fungal pathogens, St; format: cell-based; conditions: Zymoseptoria tritici, 48 h, Septoria tritici; growth inhibition at 48 hours vs 2% DMSO control; read-out: Concentration at 90% Inhibition St
Outline: as §2

[2] = tested on: Fusarium virguliforme (Fv); assay: Growth inhibition assay of fungal pathogens, Fv; format: cell-based; conditions: 48 h, growth inhibition at 48 hours vs 2% DMSO control, read-out: Concentration at 90% Inhibition Fv
Outline: as §2

C. albicans = assay: Antifungal Activity Assay (broth microtiter MIC), C. albicans; format: cell-based, Candida albicans; conditions: Candida albicans, ATCC90028, 48 h, Table 3b (additional results); ATCC 90028; 3 replicates; MIC recorded at 48 h; read-out: MIC, C. albicans ATCC 90028
Outline: as §1

Rhizoctonia solani (Rs) = assay: Growth inhibition assay of fungal pathogens, Rs; format: cell-based; conditions: 48 h, mycelial plugs, growth inhibition at 48 hours vs 2% DMSO control, read-out: Concentration at 90% Inhibition Rs
C. parapsilosis = assay: Antifungal Activity Assay (broth microtiter MIC), C. parapsilosis; format: cell-based, Candida parapsilosis; conditions: Lodderomyces parapsilosis, ATCC22019, 48 h, Table 3b (additional results); ATCC 22019; 3 replicates; MIC recorded at 48 h; read-out: MIC, C. parapsilosis ATCC 22019
Outline: as §1

[3] = tested on: Phytophthora capsici (Pc); assay: Growth inhibition assay of fungal pathogens, Pc; format: cell-based; conditions: 48 h, growth inhibition at 48 hours vs 2% DMSO control, read-out: Concentration at 90% Inhibition Pc
Outline: as §2

Botrtyis cinerea (Bc) = assay: Growth inhibition assay of fungal pathogens, Bc; format: cell-based; conditions: 48 h, Botrtyis cinerea; growth inhibition at 48 hours vs 2% DMSO control; read-out: Concentration at 90% Inhibition Bc
Outline: as §2

[4] = tested on: Fusarium moniliforme (Fm); assay: Growth inhibition assay of fungal pathogens, Fm; format: cell-based; conditions: Fusarium verticillioides, 48 h, Fusarium moniliforme; growth inhibition at 48 hours vs 2% DMSO control; read-out: Concentration at 90% Inhibition Fm
Outline: as §2

`COc1ccccc1[C@H](Cn1c(=O)n([C@H](C)C(=O)N(C)C(C)C)c(=O)c2c(C)c(-n3nccn3)sc21)OCCC#N` [Compound I-205] gave an MIC (C. krusei) of 2.01 to 4 µg/mL (≈ 3.47 to 6.9 µM), an IC90 [1] of 10 µg/mL (≈ 17.3 µM) and an IC50 (human (hACC2)) of 5 to 10 nM. For the same compound, the IC50 (fungal (fACC2)) was 0.3 to 1 nM, the IC90 (Diplodia maydis (Dm)) was 10 µg/mL (≈ 17.3 µM) and the IC90 (Septoria tritici (St)) was > 50 µg/mL. It also gave an IC90 [2] of 10 µg/mL (≈ 17.3 µM), an MIC (C. albicans) of 2.01 to 4 µg/mL (≈ 3.47 to 6.9 µM) and an IC90 (Rhizoctonia solani (Rs)) of 10 µg/mL (≈ 17.3 µM). The MIC (C. parapsilosis) was 1.01 to 2 µg/mL (≈ 1.74 to 3.45 µM), the IC90 [3] was > 50 µg/mL and the IC90 (Botrtyis cinerea (Bc)) was 2 µg/mL (≈ 3.45 µM). It also gave an IC90 [4] of 2 µg/mL (≈ 3.45 µM).

In the case of `COc1ccccc1[C@H](Cn1c(=O)n([C@@H](C)C(=O)N(C)C(C)C)c(=O)c2c(C)c(-n3nccn3)sc21)OCCC#N` [Compound I-206], the MIC (C. krusei) is reported as 2.01 to 4 µg/mL (≈ 3.47 to 6.9 µM), the IC90 [1] is reported as 2 µg/mL (≈ 3.45 µM) and the IC50 (human (hACC2)) is reported as 1 to 5 nM. For the same compound, the IC50 (fungal (fACC2)) was 0.3 to 1 nM, the IC90 (Diplodia maydis (Dm)) was 2 µg/mL (≈ 3.45 µM) and the IC90 (Septoria tritici (St)) was 10 µg/mL (≈ 17.3 µM). The IC90 [2] was 0.08 µg/mL (≈ 0.138 µM), the MIC (C. albicans) was 2.01 to 4 µg/mL (≈ 3.47 to 6.9 µM) and the IC90 (Rhizoctonia solani (Rs)) was 0.08 µg/mL (≈ 0.138 µM). It also gave an MIC (C. parapsilosis) of 1.01 to 2 µg/mL (≈ 1.74 to 3.45 µM), an IC90 [3] of 10 µg/mL (≈ 17.3 µM) and an IC90 (Botrtyis cinerea (Bc)) of 2 µg/mL (≈ 3.45 µM). For the same compound, the IC90 [4] was 0.08 µg/mL (≈ 0.138 µM).

`COc1ccc(F)cc1[C@H](Cn1c(=O)n([C@H](C)C(=O)NC(C)C)c(=O)c2c(C)c(-n3nccn3)sc21)OCC(C)(C)C#N` [Compound I-210] showed an MIC (C. krusei) of 2.01 to 4 µg/mL (≈ 3.29 to 6.54 µM), an IC90 [1] of 0.4 µg/mL (≈ 0.654 µM) and an IC50 (human (hACC2)) of 1 to 5 nM. The IC50 (fungal (fACC2)) was 0.3 to 1 nM, the IC90 (Diplodia maydis (Dm)) was 0.4 µg/mL (≈ 0.654 µM) and the IC90 (Septoria tritici (St)) was 2 µg/mL (≈ 3.27 µM). The IC90 [2] was 0.4 µg/mL (≈ 0.654 µM), the MIC (C. albicans) was 1.01 to 2 µg/mL (≈ 1.65 to 3.27 µM) and the IC90 (Rhizoctonia solani (Rs)) was 0.08 µg/mL (≈ 0.131 µM). For the same compound, the MIC (C. parapsilosis) was 1.01 to 2 µg/mL (≈ 1.65 to 3.27 µM), the IC90 [3] was > 50 µg/mL and the IC90 (Botrtyis cinerea (Bc)) was 0.4 µg/mL (≈ 0.654 µM). It also gave an IC90 [4] of 0.08 µg/mL (≈ 0.131 µM).

`COc1ccc(F)cc1[C@H](Cn1c(=O)n([C@@H](C)C(=O)NC(C)C)c(=O)c2c(C)c(-n3nccn3)sc21)OCC(C)(C)C#N` [Compound I-211] was tested, and the MIC (C. krusei) was 2.01 to 4 µg/mL (≈ 3.29 to 6.54 µM), the IC90 [1] was > 50 µg/mL and the IC50 (human (hACC2)) was 10 to 40 nM. The IC50 (fungal (fACC2)) was 1 to 5 nM, the IC90 (Diplodia maydis (Dm)) was 10 µg/mL (≈ 16.3 µM) and the IC90 (Septoria tritici (St)) was > 50 µg/mL. For the same compound, the IC90 [2] was > 50 µg/mL, the MIC (C. albicans) was 1.01 to 2 µg/mL (≈ 1.65 to 3.27 µM) and the IC90 (Rhizoctonia solani (Rs)) was > 50 µg/mL. For the same compound, the MIC (C. parapsilosis) was 1.01 to 2 µg/mL (≈ 1.65 to 3.27 µM), the IC90 [3] was > 50 µg/mL and the IC90 (Botrtyis cinerea (Bc)) was 2 µg/mL (≈ 3.27 µM). For the same compound, the IC90 [4] was 2 µg/mL (≈ 3.27 µM).

With `COc1ccc(F)cc1[C@H](Cn1c(=O)n([C@H](C)C(N)=O)c(=O)c2c(C)c(-n3nccn3)sc21)OCC(C)(C)C#N` [Compound I-212] the MIC (C. krusei) was > 4.01 µg/mL, the IC90 [1] was 10 µg/mL (≈ 17.6 µM) and the IC50 (human (hACC2)) was 1 to 5 nM. The IC50 (fungal (fACC2)) was 1 to 5 nM, the IC90 (Diplodia maydis (Dm)) was 10 µg/mL (≈ 17.6 µM) and the IC90 (Septoria tritici (St)) was > 50 µg/mL. The IC90 [2] was 10 µg/mL (≈ 17.6 µM), the MIC (C. albicans) was 0.25 to 1 µg/mL (≈ 0.439 to 1.76 µM) and the IC90 (Rhizoctonia solani (Rs)) was 2 µg/mL (≈ 3.51 µM). For the same compound, the MIC (C. parapsilosis) was 2.01 to 4 µg/mL (≈ 3.53 to 7.02 µM), the IC90 [3] was > 50 µg/mL and the IC90 (Botrtyis cinerea (Bc)) was 2 µg/mL (≈ 3.51 µM). The IC90 [4] was 2 µg/mL (≈ 3.51 µM).

In the case of `COc1ccc(F)cc1[C@H](Cn1c(=O)n([C@@H](C)C(N)=O)c(=O)c2c(C)c(-n3nccn3)sc21)OCC(C)(C)C#N` [Compound I-213], the MIC (C. krusei) is reported as > 4.01 µg/mL, the IC90 [1] is reported as > 50 µg/mL and the IC50 (human (hACC2)) is reported as 5 to 10 nM. For the same compound, the IC50 (fungal (fACC2)) was 1 to 5 nM, the IC90 (Diplodia maydis (Dm)) was > 50 µg/mL and the IC90 (Septoria tritici (St)) was > 50 µg/mL. The IC90 [2] was > 50 µg/mL, the MIC (C. albicans) was 0.25 to 1 µg/mL (≈ 0.439 to 1.76 µM) and the IC90 (Rhizoctonia solani (Rs)) was > 50 µg/mL. The MIC (C. parapsilosis) was 2.01 to 4 µg/mL (≈ 3.53 to 7.02 µM), the IC90 [3] was > 50 µg/mL and the IC90 (Botrtyis cinerea (Bc)) was > 50 µg/mL. The IC90 [4] was 10 µg/mL (≈ 17.6 µM).
